Measured values reported in PubChem BioAssay (NCI).
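GI50 = concentration required for 50% inhibition of growth. TGI denotes the concentration required for complete inhibition of growth.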

What was measured:
Assay in all cases: DTP human tumour cell line panel, 384-well format
[1] = test system: OVCAR-4 ovarian
[2] = test system: NCI-H23 lung
[3] = test system: M14 melanoma
[4] = test system: CCRF-CEM leukemia
[5] = test system: PC-3 prostate
[6] = test system: SW-620 colon
[7] = test system: NCI-H226 lung
[8] = test system: MDA-MB-468 breast
[9] = test system: HL-60(TB) leukemia
[10] = test system: LOX IMVI melanoma
[11] = test system: MDA-MB-435 melanoma
[12] = test system: SN12C renal
[13] = test system: ACHN renal
[14] = test system: UACC-257 melanoma
[15] = test system: U251 glioblastoma
[16] = test system: HCT-15 colon
[17] = test system: HOP-62 NSCLC
[18] = test system: SK-OV-3 ovarian
[19] = test system: IGROV1 ovarian
[20] = test system: MALME-3M melanoma
[21] = test system: SF-539 CNS
[22] = test system: DU-145 prostate
[23] = test system: TK-10 renal
[24] = test system: NCI-H460 NSCLC
[25] = test system: UO-31 renal
[26] = test system: HS 578T breast
[27] = test system: NCI-H522 lung
[28] = test system: SNB-19 CNS
[29] = test system: CAKI-1 renal
[30] = test system: A498 renal
[31] = test system: MDA-MB-231 breast
[32] = test system: SNB-75 CNS
[33] = test system: NCI-H322M lung
[34] = test system: HCT-116 colon
[35] = test system: SF-268 CNS
[36] = test system: A549 NSCLC
[37] = test system: HCC-2998 colon
[38] = test system: HOP-92 NSCLC
[39] = test system: SK-MEL-28 melanoma
[40] = test system: OVCAR-3 ovarian
[41] = test system: KM12 colon
[42] = test system: SF-295 CNS
[43] = test system: MCF7 breast
[44] = test system: SR leukemia
[45] = test system: T-47D breast
[46] = test system: EKVX NSCLC
[47] = test system: BT-549 breast
[48] = test system: 786-0 renal
[49] = test system: RXF 393 renal
[50] = test system: OVCAR-5 ovarian
[51] = test system: SK-MEL-5 melanoma
[52] = test system: HT29 colon
[53] = test system: COLO 205 colon
[54] = test system: UACC-62 melanoma
[55] = test system: NCI/ADR-RES ovarian
[56] = test system: OVCAR-8 ovarian
[57] = test system: MOLT-4 leukemia
[58] = test system: K-562 leukemia
[59] = test system: RPMI-8226 leukemia
[60] = test system: SK-MEL-2 melanoma

O=C(Nc1cn[nH]c1-c1nc2ccc(CN3CCOCC3)cc2[nH]1)NC1CC1
GI50 [1]: 1120 nM | TGI [1]: 5390 nM | GI50 [2]: 88.2 nM | TGI [2]: 2030 nM | GI50 [3]: 364 nM | TGI [3]: 2210 nM | TGI [4]: 28 nM | GI50 [5]: 299 nM | TGI [5]: 13900 nM | GI50 [6]: 36.3 nM | TGI [6]: > 100000 nM | GI50 [7]: 85.8 nM | TGI [7]: 273 nM | GI50 [8]: 16.9 nM | TGI [8]: 36.7 nM | GI50 [9]: 13 nM | TGI [9]: 28.1 nM | GI50 [10]: 248 nM | TGI [10]: 1120 nM | GI50 [11]: 1470 nM | TGI [11]: 3370 nM | GI50 [12]: 1030 nM | TGI [12]: 2420 nM | GI50 [13]: 413 nM | TGI [13]: > 100000 nM | GI50 [14]: 2090 nM | TGI [14]: 4190 nM | GI50 [15]: 228 nM | TGI [15]: 1300 nM | GI50 [16]: 1540 nM | TGI [16]: 11600 nM | GI50 [17]: 184 nM | TGI [17]: 1390 nM | GI50 [18]: 259 nM | TGI [18]: 2280 nM | GI50 [19]: 633 nM | TGI [19]: > 100000 nM | GI50 [20]: 1420 nM | TGI [20]: 3080 nM | GI50 [21]: 168 nM | TGI [21]: 453 nM | GI50 [22]: 651 nM | TGI [22]: 70400 nM | GI50 [23]: 210 nM | TGI [23]: 706 nM | GI50 [24]: 48.7 nM | TGI [24]: 1590 nM | GI50 [25]: 111 nM | TGI [25]: 1210 nM | GI50 [26]: 33.6 nM | TGI [26]: 73.5 nM | GI50 [27]: 237 nM | TGI [27]: 835 nM | GI50 [28]: 256 nM | TGI [28]: 1730 nM | GI50 [29]: 71.8 nM | TGI [29]: > 100000 nM | GI50 [30]: 289 nM | TGI [30]: 6650 nM | GI50 [31]: 322 nM | TGI [31]: 2540 nM | GI50 [32]: 38.1 nM | TGI [32]: 113 nM | GI50 [33]: 1290 nM | TGI [33]: 3480 nM | GI50 [34]: 71 nM | TGI [34]: > 100000 nM | GI50 [35]: 103 nM | TGI [35]: 436 nM | GI50 [36]: 800 nM | TGI [36]: > 100000 nM | GI50 [37]: 1360 nM | TGI [37]: 2810 nM | GI50 [38]: 172 nM | TGI [38]: 10800 nM | GI50 [39]: 1350 nM | TGI [39]: 2910 nM | GI50 [40]: 156 nM | TGI [40]: 382 nM | GI50 [41]: 1040 nM | TGI [41]: 3490 nM | GI50 [42]: 187 nM | TGI [42]: 1210 nM | GI50 [43]: 345 nM | TGI [43]: 7390 nM | TGI [44]: 18.7 nM | GI50 [45]: 2200 nM | TGI [45]: 6040 nM | GI50 [46]: 196 nM | TGI [46]: 4490 nM | GI50 [47]: 58.7 nM | TGI [47]: 386 nM | GI50 [48]: 261 nM | TGI [48]: 10200 nM | GI50 [49]: 22.3 nM | TGI [49]: 61.2 nM | GI50 [50]: 1810 nM | TGI [50]: > 100000 nM | GI50 [51]: 1260 nM | TGI [51]: 2670 nM | GI50 [52]: 75.3 nM | TGI [52]: > 100000 nM

CC/C(=C(\c1ccccc1)c1ccc(OCCNC)cc1)c1ccccc1
GI50 [1]: 2100 nM | TGI [1]: 3680 nM | GI50 [2]: 2130 nM | TGI [2]: 3670 nM | GI50 [3]: 2070 nM | TGI [3]: 3520 nM | GI50 [4]: 1730 nM | TGI [4]: 3130 nM | GI50 [53]: 1940 nM | TGI [53]: 3400 nM | GI50 [5]: 1970 nM | TGI [5]: 3480 nM | GI50 [6]: 1980 nM | TGI [6]: 3460 nM | GI50 [54]: 2160 nM | TGI [54]: 3630 nM | GI50 [7]: 2150 nM | TGI [7]: 4650 nM | GI50 [8]: 2390 nM | TGI [8]: 3870 nM | GI50 [9]: 1580 nM | TGI [9]: 2940 nM | GI50 [10]: 1790 nM | TGI [10]: 3210 nM | GI50 [11]: 2060 nM | TGI [11]: 3500 nM | GI50 [12]: 1850 nM | TGI [12]: 3420 nM | GI50 [13]: 1850 nM | TGI [13]: 3300 nM | GI50 [14]: 2300 nM | TGI [14]: 3770 nM | GI50 [15]: 2160 nM | TGI [15]: 3640 nM | GI50 [16]: 1820 nM | TGI [16]: 3270 nM | GI50 [55]: 2200 nM | TGI [55]: 3910 nM | GI50 [17]: 2350 nM | TGI [17]: 3830 nM | GI50 [18]: 1870 nM | TGI [18]: 3300 nM | GI50 [19]: 1860 nM | TGI [19]: 3350 nM | GI50 [56]: 1860 nM | TGI [56]: 3320 nM | GI50 [20]: 2150 nM | TGI [20]: 3610 nM | GI50 [21]: 2100 nM | TGI [21]: 3560 nM | GI50 [22]: 2260 nM | TGI [22]: 4240 nM | GI50 [23]: 2120 nM | TGI [23]: 4070 nM | GI50 [24]: 1980 nM | TGI [24]: 3510 nM | GI50 [26]: 1900 nM | TGI [26]: 3320 nM | GI50 [27]: 1930 nM | TGI [27]: 3360 nM | GI50 [28]: 2140 nM | TGI [28]: 3640 nM | GI50 [29]: 1530 nM | TGI [29]: 2920 nM | GI50 [30]: 1720 nM | TGI [30]: 3100 nM | GI50 [57]: 1490 nM | TGI [57]: 2820 nM | GI50 [32]: 2060 nM | TGI [32]: 3550 nM | GI50 [33]: 2160 nM | TGI [33]: 3700 nM | GI50 [58]: 1830 nM | TGI [58]: 3250 nM | GI50 [59]: 2290 nM | TGI [59]: 3760 nM | GI50 [34]: 1970 nM | TGI [34]: 3450 nM | GI50 [35]: 2360 nM | TGI [35]: 3930 nM | GI50 [36]: 1710 nM | TGI [36]: 3160 nM | GI50 [37]: 1660 nM | TGI [37]: 3040 nM | GI50 [38]: 2050 nM | TGI [38]: 3510 nM | GI50 [39]: 2070 nM | TGI [39]: 3520 nM | GI50 [40]: 1920 nM | TGI [40]: 3400 nM | GI50 [41]: 1990 nM | TGI [41]: 3470 nM | GI50 [42]: 1880 nM | TGI [42]: 3300 nM | GI50 [60]: 1860 nM | TGI [60]: 3280 nM | GI50 [43]: 1200 nM | TGI [43]: 2610 nM | GI50 [46]: 1920 nM | TGI [46]: 3670 nM | GI50 [47]: 1820 nM | TGI [47]: 3260 nM | GI50 [48]: 1790 nM | TGI [48]: 3200 nM | GI50 [49]: 2020 nM | TGI [49]: 3470 nM | GI50 [51]: 1690 nM | TGI [51]: 3080 nM | GI50 [52]: 1770 nM | TGI [52]: 3190 nM
